The values that follow are results of earlier work, collected in patent US5989558A, “Method of using rosmarinus officinalis for treating various diseases” (priority 1997, dated 1999).

Where two headings read alike, the source gives them in different places.

For data set [1] the following is noted: 400 mg three times a day.

Consider `Fc1ccc(C(c2ccc(F)cc2)N2CCN(C/C=C/c3ccccc3)CC2)cc1` [flunarizine], for which, under “treatment of dizziness, poor hearing, and tinnitus”, the “nausea as side effect” value is “all of the drugs cause nausea”.

With `CC(=O)CCCCn1c(=O)c2c(ncn2C)n(C)c1=O` [pentoxifylline], the “nausea as side effect” value (in vivo) is recorded as “all of the drugs cause nausea”. In addition, in data set [1] (after 60 days), the ulcers healed was 7 ulcers. Also, the further ulcer healed entry in data set [1] (after 120 days) is on record as “Another ulcer healed after 120 days”. Further, the “patients able to complete the six month program” value in data set [1] (of 12 patients, limited by side effects) was 9 patients. Besides, the ulcer size reduction entry in data set [1] (one ulcer, after six months) is “reduced in size from 4 cm to 2 cm”.
